Test results from patent US11648289B2, “Antibacterial method” (priority 2016, dated 2023).
No end group written: not given here.

Legend:
B. cercus LMGT 2711 = tested on: B. cercus LMGT 2711
Description: (§1) Bacterial strains, growth conditions, bacteriocins and antimicrobial assays. All the strains (see below) used in minimal inhibitory concentration (MIC) assays (Varahan et al., 2014, M. Bio. 5:e01726-01714) were grown in BHI medium (Oxoid) at 30° C. without shaking. A collection of E. faecium strains isolated from blood in patients from different European hospitals was received from Department of Medical Microbiology, University Medical Center Utrecht, the Netherlands. […] Synthesized peptides were solubilized to concentrations of 10.0-0.1 mg/ml in 0.1% (vol/vol) trifluoroacetic acid and stored at −20° C. until use. […] Bacteriocin activity was determined by microtiter plate assay as previously described (Holo et al., 1991, J. Bacteriol., 173:3879-3887). The MIC was defined as the minimal bacteriocin concentration that inhibited the growth of the indicator strain by at least 50% (50% of the turbidity of the control culture without bacteriocin) in 200 μl culture. CD Spectroscopy Circular dichroism (CD) spectra were recorded using a Jasco J-810 spectropolarimeter (Jasco International Co) calibrated with D-camphor-10-sulfonate (Icatayama Chemical). All measurements were made using a quartz cuvette (Sterna) with 0.1 cm path length. Samples were scanned five times with a scanning rate of 50 nm/min with a bandwidth of 0.5 nm and response time of 1 s over the wavelength range 190-250 nm. Spectra were recorded at different (30 and 50%) trifluoroethanol (TFE) (Aldridge) concentrations at 25° C. The approximate α-helical content of the protein was estimated from its molar ellipticity at 222 nm (Scholtz et al., 1991, Biopolymers 31:1463-1470). NMR Spectroscopy The experiments were run on a sample containing 1.0 mM EntK1, 50% D3-TFE (99.5% D) (Aldrich), Milli-Q water and 0.2 mM of 4,4-dimethyl-4-silapentane-1-sulfonic acid (DSS) (Larodan). 2D NOESY (Jeener et al., 1979, J. Magn. Reson., 71:4546-4553), 2D TOCSY (Braunschweiler and Ernst, 1983, J. Magn. Reson., 53:521-528), 2D DQCOSY, ^15N-HSQC (Davis et al., 1992, J. Magn. Reson., 98:207-216) and ^13C-HSQC (Hurd, 1991, J. Magn. Reson., 91:648-653) were recorded. The data was acquired on a 600 MHz Bruker Avance II spectrometer with four channels and a 5 mm TCI cryoprobe (Bruker Biospin). NOESY spectra with mixing times between 120 ms and 300 ms were obtained for both samples. TOCSY mixing times of 15-80 ms were used. The experiments were run at 298.15 K. Spectra were processed using the Topspin program (Bruker Biospin). 4,4-dimethyl-4-silapentane-1-sulfonic acid (DSS) was used as a chemical shift standard, and ^15N and ^13C data were referenced using frequency ratios as described in (Wishart et al., 1995, J. Biomol. NMR., 6:135-140). For visualization, assignment and integration of the spectra the computer program CARA was used (Keller, 2004, The Computer Aided Resonance Assignment Tutorial. CANTINA Verlag, Goldau, Switzerland). The spectra were assigned using standard methods. Dihedral angle restraints were obtained from the chemical shift values using the program TALOS-N(Shen and Bax, 2013, J. Biomol. NMR, 56:227-241). Nuclear Overhauser effect (NOE) distance restraints were calculated from the peak volumes in the NOESY spectra with NOESY mixing time of 200 ms. All structure calculations were made using the structure calculation program CYANA 2.1 (Guntert et al., 1997, J. Mol. Biol., 273:283-298; Herrmann et al., 2002, J. Mol. Biol., 319:209-227). The annealing macro in CYANA calculated 100 structures. The 20 structures with the lowest energy were kept and analyzed further. The root-mean-square deviation (RMSD) was calculated and the structures were visualized using MolMol (Koradi et al., 1996, J. Mol. Graph., 14:51-55, 29-32). Generation of bacteriocin resistant mutants of E. faecalis and E. faecium.

B. cereus LMGT 2731 = tested on: B. cereus LMGT 2731
Description: as §1

B. cereus LMGT 3025 = tested on: B. cereus LMGT 3025
Description: as §1

[1] = tested on: Bacillus cereus LMGT 2805
Description: as §1

E. faecalis LMGT 3200 = tested on: E. faecalis LMGT 3200
Description: as §1

E. faecalis LMGT 3359 = tested on: E. faecalis LMGT 3359
Description: as §1

E. faecalis LMGT 3571 = tested on: E. faecalis LMGT 3571
Description: as §1

E. faecium LMGT 3104 = tested on: E. faecium LMGT 3104
Description: as §1

E. faecium LMGT 3110 = tested on: E. faecium LMGT 3110
Description: as §1

E. faecium LMGT 3599 = tested on: E. faecium LMGT 3599
Description: as §1

E. hirae LMGT 3236 = tested on: E. hirae LMGT 3236
Description: as §1

L. cremoris LMGT 2057 = tested on: L. cremoris LMGT 2057
Description: as §1

L. curvatus LMGT 2355 = tested on: L. curvatus LMGT 2355
Description: as §1

L. lactis IL1403 = tested on: L. lactis IL1403
Description: as §1

[2] = tested on: Lactococcus garvieae LMGT 1546
Description: as §1

S. aureus LMGT 3258 = tested on: S. aureus LMGT 3258
Description: as §1

S. aureus LMGT 3260 = tested on: S. aureus LMGT 3260
Description: as §1

[3] = tested on: S. pneumoniae ds220 induced; conditions: ds220 induced with ComS (2 μM), WT rseP
Description: as §1

S. pneumoniae ms2 = conditions: ms2, rseP E19>A, induced with ComS (2 μM)
Description: as §1

S. pneumoniae ms5 = conditions: for MIC: ms5, rseP HExxH>AAxxA, induced with ComS (2 μM)
Description: as §1

[4] = tested on: Staphylococcus. aureus LMGT 3310
Description: as §1

Sequence | MIC 50 (B. cercus LMGT 2711) [µM] | MIC 50 (B. cereus LMGT 2731) [µM] | MIC 50 (B. cereus LMGT 3025) [µM] | MIC 50 [1] [µM] | MIC 50 (E. faecalis LMGT 3200) [µM] | MIC 50 (E. faecalis LMGT 3359) [µM] | MIC 50 (E. faecalis LMGT 3571) [µM] | MIC 50 (E. faecium LMGT 3104) [µM] | MIC 50 (E. faecium LMGT 3110) [µM] | MIC 50 (E. faecium LMGT 3599) [µM] | MIC 50 (E. hirae LMGT 3236) [µM] | MIC 50 (L. cremoris LMGT 2057) [µM] | MIC 50 (L. curvatus LMGT 2355) [µM] | MIC 50 (L. lactis IL1403) [µM] | MIC 50 [2] [µM] | MIC 50 (S. aureus LMGT 3258) [µM] | MIC 50 (S. aureus LMGT 3260) [µM] | MIC [3] [µM] | MIC (S. pneumoniae ms2) [µM] | MIC (S. pneumoniae ms5) [µM] | other results
MKFKFNPTGTIVKKLTQYEIAWFKNKHGYYPWEIPRC [EntK1] | 2.75 | >5.5 | >5.5 | >5.5 | >5.5 | >5.5 | >5.5 | 0.01 | 0.045 | 0.085 | 0.045 | >5.5 | 5.5 | 0.17 | 1.37 | >5.5 | >5.5 | 0.7 | >5.5 | >5.5 | MIC 50 [4]: >5.5 µM
MKTILRFVAGYDIASHKKKTGGYPWERGKA [LsbB, reference compound] | >7 | >7 | >7 | >7 | >7 | >7 | >7 | >7 | >7 | >7 | >7 | >7 | >7 | 0.0005 | >7 | >7 | >7 | >7 | >7 | >7 | times more potent than EntEJ97 (L. lactis IL1403): ~70 times; times more potent than EntK1 (L. lactis IL1403): about 340 times; MIC 50 [4]: >7 µM
MLAKIKAMIKKFPNPYTLAAKLTTYEINWYKQQYGRYPWERPVA [EntEJ97] | >4.7 | >4.7 | 2.3 | >4.7 | 0.295 | 0.145 | 0.295 | 0.145 | 0.295 | 0.145 | 0.075 | 0.145 | 0.145 | 0.037 | 0.295 | >4.7 | 2.3 | 0.018 | 0.3 | 0.6 | times more resistant than the WT (S. pneumoniae ms5; all three conserved RseP residues replaced with alanines): 30 times; MIC 50 [4]: 0.59 µM
